From patent US9834549B2, “3,3-disubstituted-(8-aza-bicyclo[3.2.1]OCT-8-yl)-[5-(1H-pyrazol-4-yl)-thiophen-3-yl]-methanones as inhibitors of 11 (β)-HSD1” (The University Of Edinburgh, priority 2010, dated 2017)
Read-outs that look alike come from different tables or passages of the source.

Assays:
human 11β-HSD2 = target: T1, human 11β-HSD2 (Homo sapiens, UniProt P80365); test: Cellular in vitro 11β-HSD2 enzyme inhibition assay (CHO cells); type: cell-based; conditions: CHO cells transfected with human 11β-HSD2
T1 construct: CHO cells stably transfected with the full-length gene coding for human 11β-HSD2 were used; expressed in transfected cells; host or cells: CHO (stably transfected)
T1 sequence (P80365 1-405): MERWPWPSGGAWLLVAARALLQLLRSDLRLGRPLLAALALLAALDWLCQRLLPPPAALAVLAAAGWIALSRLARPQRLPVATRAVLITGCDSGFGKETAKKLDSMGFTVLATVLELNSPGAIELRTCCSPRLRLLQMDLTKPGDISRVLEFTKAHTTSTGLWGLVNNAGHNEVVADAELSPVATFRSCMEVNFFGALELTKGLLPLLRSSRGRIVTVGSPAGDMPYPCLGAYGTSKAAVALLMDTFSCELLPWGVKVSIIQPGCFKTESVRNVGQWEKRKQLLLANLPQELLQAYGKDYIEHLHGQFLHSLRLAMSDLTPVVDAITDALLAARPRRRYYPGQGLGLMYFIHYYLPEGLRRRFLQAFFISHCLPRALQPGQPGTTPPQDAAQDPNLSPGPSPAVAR
Procedure: For measurement of inhibition of 11β-HSD2, CHO cells stably transfected with the full-length gene coding for human 11β-HSD2 were used. Assays were carried out in 96-well microplates containing 1×10^5 cells/well. Controls and compounds were plated as above, so that the final DMSO concentration in each well was 1%. To initiate the assay, 90 μL of a solution of HAMS F-12 medium containing 1% glutamine, 1% penicillin and streptomycin, and 22 nM tritiated cortisol was added to each well of the assay plate. The plate was then incubated in 5% CO2, 95% O2 at 37° C. for 16 hours.
The assay solutions were transferred to glass tubes and […] added to each tube. Each tube was vortexed thoroughly and the upper layer containing the tritiated steroid transferred to a fresh glass tube. The solvent was evaporated by placing the tubes in a heating block at 65° C. under a stream of nitrogen gas. 20 μL ethanol was added to each of the dried samples and vortexed briefly. Each sample was applied to a silica TLC plate and the plate dried. The plate was placed vertically in a glass tank containing 92% chloroform: 8% ethanol and the solvent allowed to rise up the plate. The plate was dried, placed in an imaging cassette, and overlayed with a tritium imaging plate for 1-2 days. The amount of enzyme inhibition in each sample was determined by measuring the intensity of the substrate and product spots using a phospho-imager. IC50 values for inhibitors were determined as described above for 11β-HSD1.

human 11β-HSD1 = target: T2, human 11β-HSD1 (Homo sapiens, UniProt P28845); test: Cellular in vitro 11β-HSD1 enzyme inhibition assay (SPA, HEK293/11β-HSD1 cells); type: cell-based; conditions: read-out: IC50 for 11β-HSD1 (HEK293)
T2 construct: stably transfected with a construct containing the full-length gene coding for the human 11β-HSD1 enzyme; expressed in transfected cells; host or cells: HEK293 (stably transfected, HEK293/11β-HSD1)
T2 sequence (P28845 whole entry): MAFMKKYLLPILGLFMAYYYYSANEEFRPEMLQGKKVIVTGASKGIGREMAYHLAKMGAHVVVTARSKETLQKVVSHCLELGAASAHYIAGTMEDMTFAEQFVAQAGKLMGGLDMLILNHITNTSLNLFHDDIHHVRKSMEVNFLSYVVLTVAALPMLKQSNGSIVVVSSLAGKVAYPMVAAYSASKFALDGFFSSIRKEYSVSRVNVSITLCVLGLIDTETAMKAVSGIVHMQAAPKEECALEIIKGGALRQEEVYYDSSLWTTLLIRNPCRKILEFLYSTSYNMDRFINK
Procedure: Compounds were assessed by a Scintillation Proximity Assay (SPA) performed according to the following protocol:
HEK293 cells were stably transfected with a construct containing the full-length gene coding for the human 11β-HSD1 enzyme to create HEK293/11β-HSD1 cells. Cells were routinely cultured in DMEM containing 10% calf foetal serum, 1% glutamine, and 1% penicillin and streptomycin. Prior to assay, cells were plated at 2×10^4 cells/well in 96-well poly-D-Lys coated flat-bottomed microplates and incubated in 5% CO2, 95% O2 at 37° C. for 24 hours. The media in each well was removed immediately before assay.
Compounds to be tested were dissolved in DMSO at 10 mM and serially diluted into water containing 10% DMSO. Diluted compounds at a volume of 10 μL were added to wells of a 96-well V-bottomed microplate. A solution of DMEM, 1% glutamine, 1% penicillin and streptomycin, and 22 nM tritiated cortisone was prepared and 90 μL added to each well of the assay plate. This solution (100 μL/well) was transferred to the plate containing the cells. The plate was then incubated in 5% CO2, 95% O2 at 37° C. for 2 hours.
Following this incubation, 50 μL of the assay solution was transferred to each well of a 96-well scintillation microplate. A mixture consisting of anti-mouse YSi SPA beads, pre-mixed with anti-cortisol antibody in assay buffer (50 mM Tris.HCl, pH 7.0; 300 mM NaCl; 1 mM EDTA, 5% glycerol) was prepared and 50 μL added to each well of the scintillation microplate. An adhesive strip was applied to the microplate and the plate gently shaken for at least 2 hours at room temperature, and then spun briefly on a low speed centrifuge. The plate was read on a scintillation counter suitable for 96-well microplates. For the calculation of percentage inhibition, a series of wells were added to the plate that represented the assay maximum and the assay minimum: one set that contained substrate without cells (minimum) and another set that contained substrate and cells without any compound (maximum).
The calculation of median inhibitory concentration (IC50) values for the compounds was performed using GraphPad Prism® software. Dose-response curves for each compound were plotted as fractional inhibition and data fitted to the four parameter logistic equation.

[1] = HEK293 cells transfected with human 11β-HSD1, first value in cell

Cc1cccnc1C1(F)CC2CCC(C1)N2C(=O)c1csc(-c2cn[nH]c2)c1 (single isomer, unassigned) [XX-16, [3-Fluoro-3-(3-methyl-pyridin-2-yl)-8-aza-bicyclo[3.2.1]oct-8-yl]-[5-(1H-pyrazol-4-yl)-thiophen-3-yl]-methanone]
IC50 (human 11β-HSD2): > 10 µM
IC50 (human 11β-HSD1; HEK293, potency groups): ≤ 0.1 µM
IC50 (human 11β-HSD1; [1]): 0.009 µM

O=C(c1csc(-c2cn[nH]c2)c1)N1C2CCC1CC(F)(c1nccs1)C2 (single isomer, unassigned) [XX-34, (3-Fluoro-3-thiazol-2-yl-8-aza-bicyclo[3.2.1]oct-8-yl)-[5-(1H-pyrazol-4-yl)-thiophen-3-yl]-methanone]
IC50 (human 11β-HSD1; HEK293, potency groups): 0.1 to 0.5 µM

O=C(c1csc(-c2cn[nH]c2)c1)N1C2CCC1CC(O)(c1ncccc1F)C2 (stereo not shown) [XX-02]
IC50 (human 11β-HSD1; HEK293, potency groups, μM): 0.5 to 10 µM

O=C(c1csc(-c2cn[nH]c2)c1)N1C2CCC1CC(O)(c1ncccc1Cl)C2 (stereo not shown) [XX-03]
IC50 (human 11β-HSD2): > 10 µM
IC50 (human 11β-HSD1; HEK293, potency groups): ≤ 0.1 µM
IC50 (human 11β-HSD1; [1]): 0.012 µM

O=C(c1csc(-c2cn[nH]c2)c1)N1C2CCC1CC(O)(c1ccncc1Cl)C2 (stereo not shown) [XX-04]
IC50 (human 11β-HSD1; HEK293, potency groups): ≤ 0.1 µM

COc1cccc(C2(O)CC3CCC(C2)N3C(=O)c2csc(-c3cn[nH]c3)c2)n1 (stereo not shown) [XX-05]
IC50 (human 11β-HSD1; HEK293, potency groups): ≤ 0.1 µM

COc1cccnc1C1(O)CC2CCC(C1)N2C(=O)c1csc(-c2cn[nH]c2)c1 (stereo not shown) [XX-06]
IC50 (human 11β-HSD1; HEK293, potency groups): ≤ 0.1 µM

Cc1cccnc1C1(O)CC2CCC(C1)N2C(=O)c1csc(-c2cn[nH]c2)c1 (stereo not shown) [XX-07]
IC50 (human 11β-HSD2): > 10 µM
IC50 (human 11β-HSD1; HEK293, potency groups): ≤ 0.1 µM
IC50 (human 11β-HSD1; [1]): 0.003 µM

CN(C)c1cccc(C2(O)CC3CCC(C2)N3C(=O)c2csc(-c3cn[nH]c3)c2)n1 (stereo not shown) [XX-08]
IC50 (human 11β-HSD1; HEK293, potency groups): ≤ 0.1 µM

O=C(c1csc(-c2cn[nH]c2)c1)N1C2CCC1CC(O)(c1ncccc1C(F)(F)F)C2 (stereo not shown) [XX-09]
IC50 (human 11β-HSD1; HEK293, potency groups): ≤ 0.1 µM

COC1(c2ccccn2)CC2CCC(C1)N2C(=O)c1csc(-c2cn[nH]c2)c1 (stereo not shown) [XX-10]
IC50 (human 11β-HSD1; HEK293, potency groups): ≤ 0.1 µM

COC1(c2ncccc2C)CC2CCC(C1)N2C(=O)c1csc(-c2cn[nH]c2)c1 (stereo not shown) [XX-11]
IC50 (human 11β-HSD1; HEK293, potency groups): ≤ 0.1 µM

CCOC1(c2ccccn2)CC2CCC(C1)N2C(=O)c1csc(-c2cn[nH]c2)c1 (stereo not shown) [XX-12]
IC50 (human 11β-HSD1; HEK293, potency groups): ≤ 0.1 µM

O=C(c1csc(-c2cn[nH]c2)c1)N1C2CCC1CC(F)(c1ccccn1)C2 (stereo not shown) [XX-14]
IC50 (human 11β-HSD1; HEK293, potency groups): ≤ 0.1 µM

Cc1cccnc1C1(C#N)CC2CCC(C1)N2C(=O)c1csc(-c2cn[nH]c2)c1 (stereo not shown) [XX-19]
IC50 (human 11β-HSD1; HEK293, potency groups): ≤ 0.1 µM

O=C(c1csc(-c2cn[nH]c2)c1)N1C2CCC1CC(O)(c1ccncn1)C2 (stereo not shown) [XX-21]
IC50 (human 11β-HSD1; HEK293, potency groups, μM): 0.5 to 10 µM

O=C(c1csc(-c2cn[nH]c2)c1)N1C2CCC1CC(O)(c1cncnc1)C2 (stereo not shown) [XX-22]
IC50 (human 11β-HSD1; HEK293, potency groups, μM): 0.5 to 10 µM

O=C(c1csc(-c2cn[nH]c2)c1)N1C2CCC1CC(O)(c1ncncc1Cl)C2 (stereo not shown) [XX-23]
IC50 (human 11β-HSD1; HEK293, potency groups): ≤ 0.1 µM

Cc1nccnc1C1(O)CC2CCC(C1)N2C(=O)c1csc(-c2cn[nH]c2)c1 (stereo not shown) [XX-25]
IC50 (human 11β-HSD1; HEK293, potency groups): 0.1 to 0.5 µM
